# Columns and labels:
# [1] = target: T1, Phospholipase A2, membrane associated (Homo sapiens) (UniProt P14555); test: Inhibitory activity against synovial human recombinant phospholipase (hr-PLA2) at 100 uM concentration
# T1 sequence (whole entry): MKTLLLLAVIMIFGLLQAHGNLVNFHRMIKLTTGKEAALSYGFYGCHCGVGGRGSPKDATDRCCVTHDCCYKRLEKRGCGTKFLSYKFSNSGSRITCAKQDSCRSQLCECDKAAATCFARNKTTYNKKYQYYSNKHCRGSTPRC
# Rattus norvegicus [2] = organism: Rattus norvegicus; test: Percent inhibition was evaluated by measuring the inhibition of peroxyl scavenging activity at 100 uM concentration; format: functional
# Rattus norvegicus [3] = organism: Rattus norvegicus; test: IC50 value was evaluated by measuring the 50% inhibition of microsomal lipid peroxidation induced by CCl4/NADPH.; format: functional
# Rattus norvegicus [4] = organism: Rattus norvegicus; test: Percent inhibition was evaluated by measuring the inhibition of microsomal lipid peroxidation induced by CCl4/NADPH.p < 0.01; format: functional; conditions: dose or concentration not given here
# Rattus norvegicus [5] = organism: Rattus norvegicus; test: Percent inhibition was evaluated by measuring the inhibition of microsomal lipid peroxidation induced by [Fe(3+)]-ADP/NADPH at 100 uM concentration; format: functional
# Rattus norvegicus [6] = organism: Rattus norvegicus; test: Inhibition of microsomal lipid peroxidation induced by [Fe(2+)]/ascorbate at 100 uM concentration; format: functional
# Homo sapiens [7] = organism: Homo sapiens; test: Inhibitory activity against elastase release by human neutrophils; format: functional; set-up: concentration or dose not given beside the values
# Homo sapiens [8] = organism: Homo sapiens; test: Inhibitory activity against TXB2 generation at 100 uM concentration; format: functional
# Rattus norvegicus [9] = organism: Rattus norvegicus; test: Inhibition of microsomal lipid peroxidation induced by [Fe(3+)]-ADP/NADPH at 100 uM concentration; format: functional
# Rattus norvegicus [10] = organism: Rattus norvegicus; test: Percent inhibition was evaluated by measuring the inhibition of microsomal lipid peroxidation induced by CCl4/NADPH; format: functional; conditions: dose or concentration not given here
# Rattus norvegicus [11] = organism: Rattus norvegicus; test: IC50 value was evaluated by measuring the 50% inhibition of microsomal lipid peroxidation induced by [Fe(3+)]-ADP/NADPH.; format: functional
# Rattus norvegicus [12] = organism: Rattus norvegicus; test: Percent inhibition was evaluated by measuring the inhibition of peroxyl scavenging activity; format: functional; conditions: dose or concentration not given here
# Rattus norvegicus [13] = organism: Rattus norvegicus; test: Inhibition of microsomal lipid peroxidation induced by CCl4/NADPH at 100 uM concentration; format: functional
# Rattus norvegicus [14] = organism: Rattus norvegicus; test: Inhibition of microsomal lipid peroxidation induced by CCl4/NADPH; format: functional; conditions: dose or concentration not given here
# Rattus norvegicus [15] = organism: Rattus norvegicus; test: IC50 value was evaluated by measuring the 50% inhibition of peroxyl scavenging activity.; format: functional
# Rattus norvegicus [16] = organism: Rattus norvegicus; test: Inhibition of microsomal lipid peroxidation induced by [Fe(3+)]-ADP/NADPH at 100 uM concentration in rat liver; format: functional
# Rattus norvegicus [17] = organism: Rattus norvegicus; test: Inhibition of microsomal lipid peroxidation induced by [Fe(2+)]/ascorbate in rat liver; format: functional
# Rattus norvegicus [18] = organism: Rattus norvegicus; test: Inhibition of microsomal lipid peroxidation induced by [Fe(3+)]-ADP/NADPH in rat liver; format: functional
# Rattus norvegicus [19] = organism: Rattus norvegicus; test: (§1) Inhibition of microsomal lipid peroxidation induced by CCl4/NADPH in rat liver; format: functional; conditions: dose or concentration not given here
# Rattus norvegicus [20] = organism: Rattus norvegicus; test: as §1; format: functional
# Rattus norvegicus [21] = organism: Rattus norvegicus; test: Inhibition of microsomal lipid peroxidation induced by [Fe(2+)]/ascorbate at given 100 uM concentration in rat liver; format: functional
# [22] = target: T1, Phospholipase A2, membrane associated (Homo sapiens); test: Inhibitory activity against synovial human recombinant phospholipase (hr-PLA2) at 1 mM concentration
# Rattus norvegicus [23] = organism: Rattus norvegicus; test: Percent inhibition was evaluated by measuring the inhibition of microsomal lipid peroxidation induced by CCl4/NADPH.; format: functional; conditions: dose or concentration not given here
# Rattus norvegicus [24] = organism: Rattus norvegicus; test: Inhibition of peroxyl scavenging activity at 100 uM concentration; format: functional
# Rattus norvegicus [25] = organism: Rattus norvegicus; test: Inhibition of microsomal lipid peroxidation induced by [Fe(3+)]-ADP/NADPH.; format: functional
# Rattus norvegicus [26] = organism: Rattus norvegicus; test: Inhibition of microsomal lipid peroxidation induced by CCl4/NADPH.; format: functional
SMILES,inhibition [1] [%],inhibition (Rattus norvegicus [2]) [%],inhibition (Rattus norvegicus [6]) [%],Inhibition (Homo sapiens [7]) [%],Inhibition (Homo sapiens [8]) [%],inhibition (Rattus norvegicus [9]) [%],also measured
COc1ccc(/C=C/C(=O)c2ccc(OC)c(OC)c2O)cc1OC,55,40,0,87.6,77.2,,IC50 (Rattus norvegicus [3]): 68.6 µM; inhibition (Rattus norvegicus [4]): 57.2%; inhibition (Rattus norvegicus [5]): 33.1%
COc1ccc(-c2cc(=O)c3ccc(C)c(C)c3o2)cc1OC,25.7,37.4,0,9.6,37.4,89.6,inhibition (Rattus norvegicus [10]): 26.2%; IC50 (Rattus norvegicus [11]): 29.6 µM
COc1ccc(/C=C/C(=O)c2ccc(C)c(C)c2O)cc1OC,27.5,,8.2,39.6,28.1,51,inhibition (Rattus norvegicus [12]): 28.8%; IC50 (Rattus norvegicus [13]): 95 µM; inhibition (Rattus norvegicus [14]): 55.3%
CCCOC(=O)c1cc(O)c(O)c(O)c1 [PROPYL GALLATE],,100,,,,,IC50 (Rattus norvegicus [15]): 33.9 µM; inhibition (Rattus norvegicus [16]): 100%; IC50 (Rattus norvegicus [17]): 4.9 µM; IC50 (Rattus norvegicus [18]): 8 µM; inhibition (Rattus norvegicus [19]): 100%; IC50 (Rattus norvegicus [20]): 4.5 µM; inhibition (Rattus norvegicus [21]): 100%
COc1ccc2c(c1)c(CC(=O)O)c(C)n2C(=O)c1ccc(Cl)cc1 [INDOMETHACIN],,,,31.9,100,,
CCN(CC)CCCC(C)Nc1c2ccc(Cl)cc2nc2ccc(OC)cc12 (centres undefined),,,,,,,inhibition [22]: 48.9%
COc1ccc(-c2cc(=O)c3ccc(OC)c(OC)c3o2)cc1OC,46.2,,0,41.7,38.6,93.2,inhibition (Rattus norvegicus [23]): 58.2%; inhibition (Rattus norvegicus [24]): 30%; IC50 (Rattus norvegicus [25]): 62.6 µM; IC50 (Rattus norvegicus [26]): 56.6 µM

# — ChEMBL document CHEMBL1128476, “Synthesis and pharmacological evaluation of 2'-hydroxychalcones and flavones as inhibitors of inflammatory mediators generation” (J Med Chem, 1995)
